Experiments:
BRM = target: T1, BRM (Homo sapiens, UniProt P51531); assay: ATPase catalytic activity of BRM, ADP-Glo in vitro biochemical assay; conditions: for IC50: ADP-Glo ATPase assay, 30 nM BRM, 400 μM ATP; for Ratio* (BRG1 IC50 (μM) divided by BRM IC50 (μM)): selectivity ratio BRG1 IC50 / BRM IC50
T1 construct: made in house; host or cells: High Five insect cells
In short: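 ADP-Glo luminescence, after depletion of leftover ATP and conversion of ADP, reported the activity. The 1 h room-temperature reaction held 400 μM ATP, 20 nM salmon sperm DNA and 30 nM BRM in 20 mM Tris pH 8, 20 mM MgCl2, 50 mM NaCl, 0.1% Tween-20, 1 mM DTT.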

BRG-1 = target: T2, BRG-1 (Homo sapiens, UniProt P51532); assay: ATPase catalytic activity of BRG-1, ADP-Glo in vitro biochemical assay; conditions: ADP-Glo ATPase assay, 30 nM BRG-1, 400 μM ATP; read-out: BRG1 IC50
T2 construct: made in house; host or cells: High Five insect cells
T2 sequence (P51532 whole entry): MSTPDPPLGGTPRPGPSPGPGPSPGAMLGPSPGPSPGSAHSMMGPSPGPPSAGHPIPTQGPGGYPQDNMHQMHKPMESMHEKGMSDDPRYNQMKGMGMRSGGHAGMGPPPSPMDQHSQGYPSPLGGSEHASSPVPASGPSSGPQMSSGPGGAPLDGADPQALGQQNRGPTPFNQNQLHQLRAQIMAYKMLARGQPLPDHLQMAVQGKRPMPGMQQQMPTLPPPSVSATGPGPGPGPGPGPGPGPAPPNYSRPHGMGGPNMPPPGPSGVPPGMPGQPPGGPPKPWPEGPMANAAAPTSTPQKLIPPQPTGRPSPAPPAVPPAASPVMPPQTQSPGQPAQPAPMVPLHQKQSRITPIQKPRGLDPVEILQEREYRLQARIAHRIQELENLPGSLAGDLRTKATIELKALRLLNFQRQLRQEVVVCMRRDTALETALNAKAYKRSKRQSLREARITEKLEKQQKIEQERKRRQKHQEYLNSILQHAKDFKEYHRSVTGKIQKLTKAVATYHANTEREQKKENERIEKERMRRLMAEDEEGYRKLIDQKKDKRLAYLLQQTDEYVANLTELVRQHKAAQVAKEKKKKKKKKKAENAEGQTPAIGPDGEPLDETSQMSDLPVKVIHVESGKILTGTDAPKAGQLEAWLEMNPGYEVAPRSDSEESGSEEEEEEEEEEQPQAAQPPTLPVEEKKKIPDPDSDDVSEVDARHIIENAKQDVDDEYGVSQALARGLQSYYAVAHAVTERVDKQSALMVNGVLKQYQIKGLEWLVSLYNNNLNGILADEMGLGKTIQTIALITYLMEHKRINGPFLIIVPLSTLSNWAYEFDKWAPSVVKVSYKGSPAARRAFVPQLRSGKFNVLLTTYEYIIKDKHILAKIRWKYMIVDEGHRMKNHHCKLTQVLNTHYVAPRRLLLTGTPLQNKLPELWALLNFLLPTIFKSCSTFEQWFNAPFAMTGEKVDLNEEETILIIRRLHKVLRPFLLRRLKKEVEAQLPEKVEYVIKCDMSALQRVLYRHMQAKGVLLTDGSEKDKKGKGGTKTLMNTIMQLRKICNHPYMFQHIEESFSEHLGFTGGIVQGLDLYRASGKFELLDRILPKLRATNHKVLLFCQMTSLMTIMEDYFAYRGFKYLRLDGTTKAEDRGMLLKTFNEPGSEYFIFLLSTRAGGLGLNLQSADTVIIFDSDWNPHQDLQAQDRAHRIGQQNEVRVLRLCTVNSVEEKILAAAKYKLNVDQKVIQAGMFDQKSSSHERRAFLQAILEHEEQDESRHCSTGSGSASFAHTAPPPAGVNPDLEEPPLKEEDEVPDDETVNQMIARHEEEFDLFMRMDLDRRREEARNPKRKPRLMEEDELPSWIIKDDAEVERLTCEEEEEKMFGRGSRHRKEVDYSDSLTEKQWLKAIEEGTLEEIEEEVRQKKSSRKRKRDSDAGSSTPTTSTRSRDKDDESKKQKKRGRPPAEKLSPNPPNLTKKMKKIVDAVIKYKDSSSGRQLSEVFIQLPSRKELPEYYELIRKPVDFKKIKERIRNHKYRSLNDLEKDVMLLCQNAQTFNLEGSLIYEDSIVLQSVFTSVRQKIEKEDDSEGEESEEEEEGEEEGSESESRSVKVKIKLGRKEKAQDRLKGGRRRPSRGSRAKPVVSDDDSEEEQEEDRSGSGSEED
In short: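 Luminescence read-out: ADP formed by BRG-1 ATPase is converted to ATP and detected by luciferase. Residual ATP is first removed with ADP-Glo Reagent for 40 min at RT; detection reagent is then incubated 60 min at RT before reading.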

T1 sequence (P51531 whole entry): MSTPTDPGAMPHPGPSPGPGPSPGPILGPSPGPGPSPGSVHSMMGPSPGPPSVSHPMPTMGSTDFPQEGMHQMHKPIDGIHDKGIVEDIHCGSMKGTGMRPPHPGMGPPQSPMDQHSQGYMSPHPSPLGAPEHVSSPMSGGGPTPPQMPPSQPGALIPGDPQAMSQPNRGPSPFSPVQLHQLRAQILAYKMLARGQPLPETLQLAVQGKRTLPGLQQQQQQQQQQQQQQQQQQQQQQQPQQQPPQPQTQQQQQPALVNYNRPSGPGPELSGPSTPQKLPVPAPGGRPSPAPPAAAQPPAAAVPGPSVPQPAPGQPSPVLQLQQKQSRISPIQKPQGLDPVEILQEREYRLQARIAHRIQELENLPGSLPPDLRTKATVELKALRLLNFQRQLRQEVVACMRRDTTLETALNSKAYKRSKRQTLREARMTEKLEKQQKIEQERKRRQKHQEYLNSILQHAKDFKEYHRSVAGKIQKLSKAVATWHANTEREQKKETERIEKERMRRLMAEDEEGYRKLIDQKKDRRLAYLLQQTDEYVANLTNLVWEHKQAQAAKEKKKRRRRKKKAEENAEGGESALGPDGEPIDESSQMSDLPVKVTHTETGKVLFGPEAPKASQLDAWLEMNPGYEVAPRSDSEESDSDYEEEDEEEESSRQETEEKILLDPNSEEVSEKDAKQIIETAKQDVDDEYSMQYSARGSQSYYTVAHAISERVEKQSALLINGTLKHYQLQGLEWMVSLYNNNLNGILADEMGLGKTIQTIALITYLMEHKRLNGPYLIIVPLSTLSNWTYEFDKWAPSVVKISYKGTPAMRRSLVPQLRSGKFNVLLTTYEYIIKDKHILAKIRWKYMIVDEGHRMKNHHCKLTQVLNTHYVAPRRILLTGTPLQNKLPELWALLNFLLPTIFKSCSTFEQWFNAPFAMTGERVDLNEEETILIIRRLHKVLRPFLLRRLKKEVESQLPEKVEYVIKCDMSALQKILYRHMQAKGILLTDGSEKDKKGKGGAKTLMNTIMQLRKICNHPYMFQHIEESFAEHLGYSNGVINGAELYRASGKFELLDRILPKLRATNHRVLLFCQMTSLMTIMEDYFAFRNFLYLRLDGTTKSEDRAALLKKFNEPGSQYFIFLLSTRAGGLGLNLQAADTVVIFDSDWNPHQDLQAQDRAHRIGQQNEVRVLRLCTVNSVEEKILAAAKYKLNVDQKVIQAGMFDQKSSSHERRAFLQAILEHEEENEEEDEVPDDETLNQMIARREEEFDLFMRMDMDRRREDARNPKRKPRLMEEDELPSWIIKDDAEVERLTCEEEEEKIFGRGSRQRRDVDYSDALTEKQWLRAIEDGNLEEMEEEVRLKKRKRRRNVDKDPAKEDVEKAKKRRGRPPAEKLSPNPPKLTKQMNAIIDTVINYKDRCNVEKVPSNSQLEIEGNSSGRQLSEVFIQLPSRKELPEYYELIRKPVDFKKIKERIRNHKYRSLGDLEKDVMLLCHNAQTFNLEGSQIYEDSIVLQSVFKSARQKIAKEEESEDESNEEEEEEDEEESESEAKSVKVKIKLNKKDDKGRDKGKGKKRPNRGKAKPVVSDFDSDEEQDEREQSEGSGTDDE

IC50 (BRM) [nM]	Ratio* (BRG1 IC50 (μM) divided by BRM IC50 (μM)) (BRM)	IC50 (BRG-1) [nM]	Compound
7	9.47	66.2	C[C@@H]1CN(c2cccc(-c3ccc4cnc(CNC(=O)c5ccc6c(c5)S(=O)(=O)CCOC6)cc4n3)n2)C[C@@H](C)O1 [Compound 215]
10.9	8.63	93.7	C[C@H]1CN(c2cccc(-c3ccc4cnc(CNC(=O)c5ccc6c(c5)S(=O)(=O)CCOC6)cc4n3)n2)C[C@H](C)O1 [Compound 216]
61.2	15.77	965	O=C(NCc1cc2nc(-c3ccnc([C@H]4CC4(F)F)n3)ccc2cn1)c1ccc2c(c1)S(=O)(=O)CCOC2 [Compound 217]
166	9.79	1620	O=C(NCc1cc2nc(-c3ccnc([C@@H]4CC4(F)F)n3)ccc2cn1)c1ccc2c(c1)S(=O)(=O)CCOC2 [Compound 218]
136	9.05	1230	C[C@]1(c2cccc(-c3ccc4cnc(CNC(=O)c5ccc6c(c5)S(=O)(=O)CCOC6)cc4n3)n2)CC1(F)F [Compound 219]
16	9.02	144	O=C(NCc1cc2nc(-c3cccc(N4CCCC4)n3)ccc2cn1)c1ccc2c(c1)S(=O)(=O)CCOC2 [Compound 220]
82.3	9.65	794	COCC1CN(c2cccc(-c3ccc4cnc(CNC(=O)c5ccc6c(c5)S(=O)(=O)CCOC6)cc4n3)n2)C1 [Compound 221]
12.9	10.58	136	O=C(NCc1cc2nc(-c3cccc(N4CC[C@@H](F)C4)n3)ccc2cn1)c1ccc2c(c1)S(=O)(=O)CCOC2 [Compound 222]
6.9	7.16	49.6	C[C@H]1CN(c2cccc(-c3ccc4cnc(CNC(=O)c5ccc6c(c5)S(=O)(=O)CCOC6)cc4n3)n2)CCO1 [Compound 223]
25.9	14.09	365	O=C(NCc1cc2nc(-c3cccc(N4CC[C@H](F)C4)n3)ccc2cn1)c1ccc2c(c1)S(=O)(=O)CCOC2 [Compound 224]
4.6	6.29	28.7	C[C@@H]1CN(c2cccc(-c3ccc4cnc(CNC(=O)c5ccc6c(c5)S(=O)(=O)CCOC6)cc4n3)n2)CCO1 [Compound 225]
11.1	12.29	136	O=C(NCc1cc2nc(-c3cccc(N4CCOCC4)n3)ccc2cn1)c1ccc2c(c1)S(=O)(=O)CCOC2 [Compound 226]
20.5	13.77	282	COC1CN(c2cccc(-c3ccc4cnc(CNC(=O)c5ccc6c(c5)S(=O)(=O)CCOC6)cc4n3)n2)C1 [Compound 228]
119	12.81	1520	O=C(NCc1cc2nc(-c3cccc4c3OCO4)ccc2cn1)c1ccc2c(c1)S(=O)(=O)CCOC2 [Compound 229]
41.6	9.60	399	O=C(NCc1cc2nc(-c3cncc(C4CC4)n3)ccc2cn1)c1cnc2c(c1)S(=O)(=O)CCCC2 [Compound 230]
130	17.98	2340	CS(=O)(=O)c1cc(C(=O)NCc2cc3nc(-c4cncc(C5CC5)n4)ccc3cn2)ccc1C(F)F [Compound 231]
58.5	7.00	410	O=C(NCc1cc2nc(-c3ccccc3OC3CC3)ccc2cn1)c1ccc2c(c1)S(=O)(=O)CCOC2 [Compound 232]
77.1	14.01	1080	CN1CCc2c(-c3ccc4cnc(CNC(=O)c5ccc6c(c5)S(=O)(=O)CCOC6)cc4n3)cccc21 [Compound 233]
188	8.09	1520	Cn1cnc2c(-c3ccc4cnc(CNC(=O)c5ccc6c(c5)S(=O)(=O)CCOC6)cc4n3)cccc21 [Compound 234]
154	7.32	1130	Cn1nccc1-c1cccc(-c2ccc3cnc(CNC(=O)c4ccc5c(c4)S(=O)(=O)CCOC5)cc3n2)c1 [Compound 235]
34	12.93	440	O=C(NCc1cc2nc(-c3cncc(C4CC4)n3)ccc2cn1)c1ccc2c(c1)S(=O)(=O)COCC2 [Compound 236]
22.7	20.63	468	O=C(NCc1cc2nc(-c3cccc(OC(F)(F)F)n3)ccc2cn1)c1ccc2c(c1)S(=O)(=O)CCOC2 [Compound 237]

IC50 (BRM) [nM]	Ratio* (BRG1 IC50 (μM) divided by BRM IC50 (μM)) (BRM)	IC50 (BRG-1) [nM]	Compound
261	19.12	5000	COCCS(=O)(=O)c1cc(C(=O)NCc2cc3nc(-c4cncc(C5CC5)n4)ccc3cn2)ccc1Cl [Compound 238]
20.6	20.48	422	CCOc1cccc(-c2ccc3cnc(CNC(=O)c4ccc5c(c4)S(=O)(=O)CCOC5)cc3n2)n1 [Compound 239]
6.5	3.66	23.8	C[C@@H]1CN(c2cccc(-c3ccc4cnc(CNC(=O)c5cc(F)c6c(c5)S(=O)(=O)CCOC6)cc4n3)n2)C[C@H](C)O1 [Compound 240]
62.3	17.23	1070	O=C(NCc1cc2nc(-c3cccc(OC4CC4)n3)ccc2cn1)c1ccc2c(c1)S(=O)(=O)CCOC2 [Compound 241]
286	11.06	3170	O=C(NCc1cc2nc(-c3cccc(OC4COC4)c3)ccc2cn1)c1ccc2c(c1)S(=O)(=O)CCOC2 [Compound 242]
528	8.82	4660	O=C(NCc1cc2nc(-c3cccc(F)n3)ccc2cn1)c1ccc2c(c1)S(=O)(=O)CCOC2 [Compound 243]
20.7	16.32	337	Cn1ccc(-c2cccc(-c3ccc4cnc(CNC(=O)c5ccc6c(c5)S(=O)(=O)CCOC6)cc4n3)c2)n1 [Compound 244]
18.7	9.42	176	Cn1ccc2c(-c3ccc4cnc(CNC(=O)c5ccc6c(c5)S(=O)(=O)CCOC6)cc4n3)cccc21 [Compound 245]
325	6.16	2000	O=C(NCc1cc2nc(-c3ccccc3Cl)ccc2cn1)c1ccc2c(c1)S(=O)(=O)CCOC2 [Compound 247]
70.2	8.41	590	O=C(NCc1cc2cc(-c3cncc(C4CC4)n3)ccc2cn1)c1cnc2c(c1)S(=O)(=O)CCOC2 [Compound 248]
105	7.17	751	O=C(NCc1cc2nc(-c3ccccc3OC(F)F)ccc2cn1)c1ccc2c(c1)S(=O)(=O)CCOC2 [Compound 250]
176	9.69	1700	O=C(NCc1cc2nc(-c3cccc([C@@H]4CC4(F)F)c3)ccc2cn1)c1ccc2c(c1)S(=O)(=O)CCOC2 [Compound 251]
75.3	18.31	1380	O=C(NCc1cc2nc(-c3cccc([C@H]4CC4(F)F)c3)ccc2cn1)c1ccc2c(c1)S(=O)(=O)CCOC2 [Compound 252]
20.7	19.26	398	O=C(NCc1cc2nc(-c3cccc(C4CC4)n3)ccc2nn1)c1ccc2c(c1)S(=O)(=O)CCOC2 [Compound 253]
54.2	9.53	517	COc1ccccc1-c1ccc2cnc(CNC(=O)c3ccc4c(c3)S(=O)(=O)CCOC4)cc2n1 [Compound 254]
36.4	13.37	487	O=C(NCc1cc2nc(-c3cccc(N4CCC4)c3)ccc2cn1)c1ccc2c(c1)S(=O)(=O)CCOC2 [Compound 255]
49	8.69	426	O=C(NCc1cc2cc(-c3cccc(N4CCC4)n3)ccc2cn1)c1cnc2c(c1)S(=O)(=O)CCOC2 [Compound 256]
15.4	6.99	107	O=C(NCc1cc2cc(-c3cncc(N4CCC4)n3)ccc2cn1)c1ccc2c(c1)S(=O)(=O)CCOC2 [Compound 257]
221	18.63	4120	O=C(NCc1cc2nc(-c3cccc(Cl)c3)ccc2cn1)c1ccc2c(c1)S(=O)(=O)CCOC2 [Compound 258]
467	10.71	5000	CS(=O)(=O)c1cc(C(=O)NCc2cc3nc(-c4cccc(C5CC5)n4)ccc3cn2)ccc1C#N [Compound 259]
697	7.17	5000	COC[C@H](C)S(=O)(=O)c1cccc(C(=O)NCc2cc3nc(-c4cncc(C5CC5)n4)ccc3cn2)c1 [Compound 260]
